From US9675596B2, “1,2,4-thiazolidin-3-one derivatives and their use in the treatment of cancer” (Baltic Bio AB, priority 2009, dated 2017)

What follows are compounds tested on PC-3 cells (assay: Cell proliferation assay (BrdU incorporation)). Conditions: Homo sapiens, serum-free, 1.25 μM, relative to vehicle control (1 unit), 18 h + 6 h BrdU, read-out: Units of BrdU incorporation.
Assay type: cell-based
Protocol: PC-3 cancer cell lines were propagated in D-MEM (Gibco 21885) supplemented with 10% Foetal calf serum. 15000 cells per well were seeded in 96 well plates and incubated overnight. The culture media was changed to serum-free D-MEM for 24 h. The culture media was then changed to serum free D-MEM containing either 0.2% DMSO as vehicle control or 0.3, 0.6, 1.2 or 2.5 μM (or 1.25, 2.5, 5, 10 μM (as indicated in Table 1 below)) of the selected compounds of Example 1 to Example 8 in 0.2% DMSO in quadruplicate. After 18 h incubation, BrdU was added according to manufacturer's recommendations. After 6 h incubation in the presence of BrdU, the culture media was removed and BrdU incorporation was measured using “Cell Proliferation ELISA, BrdU colorimetric” Roche (11647229001) according to manufacturer's recommendations.
Proliferation rate of PC-3 cells are reduced by relevant concentrations of the test compounds as measured by BrdU incorporation.

Row | SMILES | activity at 1.25 µM
1 | O=c1[nH]s/c(=N\c2ccc(Cl)c(Cl)c2)n1C(c1ccccc1)c1ccccc1 [Example 6, 4-Benzhydryl-5-(3,4-dichlorophenyl)imino-1,2,4-thiadiazolidin-3-one] | 42%
2 | O=c1nc(Nc2ccc(Cl)c(Cl)c2)sn1Cc1ccc(F)c(F)c1 [Example 8c, 1,5-(3,4-dichlorophenylamino)-2-(3,4-difluorobenzyl)-[1,2,4]thiadiazol-3-one] | 7%

Same assay, conditions: Homo sapiens, serum-free, 2.5 μM, relative to vehicle control (1 unit), 18 h + 6 h BrdU, read-out: Units of BrdU incorporation

Row | SMILES | activity at 2.5 µM
3 | O=C(Nc1nc(=O)n(Cc2ccc(F)cc2)s1)c1ccc(OC(F)(F)F)cc1 [Example 4n, N-[2-[(4-fluorophenyl)methyl]-3-oxo-1,2,4-thiadiazol-5-yl]-4-(trifluoromethoxy)-benzamide] | 17%
4 | COc1ccc(Cn2sc(Nc3ccc(Cl)c(Cl)c3)nc2=O)cc1 [Example 8a, 1,5-(3,4-Dichlorophenylamino)-2-(4-methoxybenzyl)-[1,2,4]thiadiazol-3-one] | 4%
5 | O=c1nc(Nc2ccc(Cl)c(Cl)c2)sn1Cc1ccc(Cl)cc1 [Example 8b, 1,5-(3,4-dichlorophenylamino)-2-(4-chlorobenzyl)-[1,2,4]thiadiazol-3-one] | 18%

Same assay, conditions: Homo sapiens, serum-free, 5 μM, relative to vehicle control (1 unit), 18 h + 6 h BrdU, read-out: Units of BrdU incorporation

Row | SMILES | activity at 5 µM
6 | O=c1[nH]s/c(=N\c2ccc(Cl)c(Cl)c2)n1Cc1ccccc1 [Example 2e] | 17%
7 | O=C(Nc1nc(=O)n(C2(c3ccc(F)cc3)CC2)s1)c1ccc(Cl)c(Cl)c1 [Example 4i, 3,4-dichloro-N-[2-[1-(4-fluorophenyl)cyclopropyl]-3-oxo-1,2,4-thiadiazol-5-yl]benzamide] | 10%
8 | O=c1nc(Nc2ccc(Cl)c(Cl)c2)sn1CCc1ccccc1 [Example 8f, 5-(3,4-dichlorophenylamino)-2-phenethyl-[1,2,4]thiadiazol-3-one] | 8%
9 | O=c1nc(Nc2ccc(C(F)(F)F)cc2)sn1Cc1ccc(F)c(F)c1 [Example 8k, 2-[(3,4-difluorophenyl)methyl]-5-[[4-(trifluoromethyl)phenyl]amino]-1,2,4-thiadiazol-3-one] | 4%
10 | O=c1nc(Nc2ccc(OC(F)(F)F)cc2)sn1Cc1ccc(F)c(F)c1 [Example 8l, 2-[(3,4-difluorophenyl)methyl]-5-[[4-(trifluoromethoxy)phenyl]amino]-1,2,4-thiadiazol-3-one] | 10%
11 | O=c1nc(Nc2ccc(C(F)(F)F)cc2)sn1Cc1ccc(Cl)cc1 [Example 8p, 2-[(4-chlorophenyl)methyl]-5-[[4-(trifluoromethyl)phenyl]amino]-1,2,4-thiadiazol-3-one] | 7%
12 | O=c1nc(Nc2ccc(C(F)(F)F)cc2)sn1Cc1cccc(F)c1 [Example 8q, 2-[(3-fluorophenyl)methyl]-5-[[4-(trifluoromethyl)phenyl]amino]-1,2,4-thiadiazol-3-one] | 15%
13 | O=c1nc(Nc2ccc(C(F)(F)F)cc2)sn1CCc1ccccc1 [Example 8r, 2-[phenylethyl]-5-[[4-(trifluoromethyl)phenyl]amino]-1,2,4-thiadiazol-3-one] | 58%
14 | N#Cc1ccc(Nc2nc(=O)n(Cc3ccc(F)c(F)c3)s2)cc1 [Example 8w, 4-[[2-[(3,4-difluorophenyl)methyl]-3-oxo-1,2,4-thiadiazol-5-yl]amino]benzonitrile] | 28%

Same assay, conditions: Homo sapiens, serum-free, 10 μM, relative to vehicle control (1 unit), 18 h + 6 h BrdU, read-out: Units of BrdU incorporation

Row | SMILES | activity at 10 µM
15 | CN(CCn1c(=O)[nH]s/c1=N\c1ccc(Cl)c(Cl)c1)c1ccc(Cl)cc1 [Example 2g, 4-[2-[(4-chlorophenyl)-methyl-amino]ethyl]-5-(3,4-dichlorophenyl)imino-1,2,4-thiadiazolidin-3-one] | 14%
16 | O=C(Nc1nc(=O)n(Cc2cccc(C(F)(F)F)c2)s1)c1ccccc1 [Example 3, N-[3-oxo-2-[[3-(trifluoromethyl)phenyl]methyl]-1,2,4-thiadiazol-5-yl]benzamide] | 70%
17 | O=C(Nc1nc(=O)n(Cc2cccc(C(F)(F)F)c2)s1)c1ccc(F)cc1 [Example 4a, 4-fluoro-N-[3-oxo-2-[[3-(trifluoromethyl)phenyl]methyl]-1,2,4-thiadiazol-5-yl]benzamide] | 30.9%
18 | O=C(Cc1ccc(F)cc1)Nc1nc(=O)n(Cc2cccc(C(F)(F)F)c2)s1 [Example 4b, 2-(4-fluorophenyl)-N-[3-oxo-2-[[3-(trifluoromethyl)phenyl]methyl]-1,2,4-thiadiazol-5-yl]acetamide] | 72%
19 | O=C(Nc1nc(=O)n(Cc2ccc(F)c(F)c2)s1)c1ccc(Cl)cc1 [Example 4c, 4-chloro-N-[2-[(3,4-difluorophenyl)methyl]-3-oxo-1,2,4-thiadiazol-5-yl]benzamide] | 39.3%
20 | O=C(Nc1nc(=O)n(Cc2ccc(F)cc2)s1)c1ccc(Cl)cc1 [Example 4d, 4-chloro-N-[2-[(4-fluorophenyl)methyl]-3-oxo-1,2,4-thiadiazol-5-yl]benzamide] | 61.2%
21 | O=C(Nc1nc(=O)n(Cc2ccc(Cl)cc2)s1)c1ccc(Cl)cc1 [Example 4e, 4-chloro-N-[2-[(4-chlorophenyl)methyl]-3-oxo-1,2,4-thiadiazol-5-yl]benzamide] | 35.5%
22 | O=C(Nc1nc(=O)n(Cc2ccc(F)cc2)s1)c1c(Cl)cccc1Cl [Example 4l, 2,6-dichloro-N-[2-[(4-fluorophenyl)methyl]-3-oxo-1,2,4-thiadiazol-5-yl]benzamide] | 20%
23 | O=C(Nc1nc(=O)n(Cc2ccc(F)cc2)s1)c1ccc(Cl)cc1Cl [Example 4m, 2,4-dichloro-N-[2-[(4-fluorophenyl)methyl]-3-oxo-1,2,4-thiadiazol-5-yl]benzamide] | 23%
24 | O=C(Nc1nc(=O)n(Cc2ccc(F)cc2)s1)c1cc(C(F)(F)F)cc(C(F)(F)F)c1 [Example 4o, N-[2-[(4-fluorophenyl)methyl]-3-oxo-1,2,4-thiadiazol-5-yl]-3,5-bis(trifluoromethyl)-benzamide] | 28%
25 | O=C(Nc1nc(=O)n(Cc2ccc(F)cc2)s1)c1ccc(F)c(F)c1 [Example 4p, 3,4-difluoro-N-[2-[(4-fluorophenyl)methyl]-3-oxo-1,2,4-thiadiazol-5-yl]benzamide] | 26%
26 | O=c1[nH]s/c(=N\c2ccc(Cl)c(Cl)c2)n1CCOc1ccccc1 [Example 5a, 5-(3,4-dichlorophenyl)imino-4-(2-phenoxyethyl)-1,2,4-thiadiazolidin-3-one] | 37%
27 | O=c1nc(Nc2ccc(Cl)c(Cl)c2)sn1CCOc1ccccc1 [Example 5b, 5-(3,4-Dichloro-phenylamino)-2-(2-phenoxy-ethyl)-[1,2,4]thiadiazol-3-one] | 14%
